Consider six molecules from patent US8815266B2, “Peptide derivatives useful in the treatment, care or cleansing of the skin, mucosae, scalp or nails” (Lipotech, S.A., priority 2008, dated 2014).

Experiment [1] has as its system hBD2 promoter. The experiment can be described thus: Activation of the hBD2 promoter (luciferase activity assay) in a stable A549 cell line. In kind it is cell-based, human. Here is the method: Assay of activation of the hBD2 promoter in a stable cell line by the compounds of general formula (I) obtained in Example 5.
The A549 human epithelial cell line was cultured using RPMI-1640 medium supplemented with FBS and Penicillin-Streptomycin. It was routinely cultured by dividing the cultures twice a week at a 1:10 dilution using Trypsin-EDTA. 10^6 cells of the A549 line were seeded in a 60 mm disc treated with polylysine. After 24 h they were cotransfected with 10 μg of a gene construct formed by the hBD2 gene promoter followed by the luciferase protein gene (pGL3-hBD2promotor-Luc), and the pcDNA3B plasmid DNA containing the geneticin antibiotic resistance gene, at a 1:5 pcDNA3B.1/pGL3-hBD2promotor-Luc ratio. 25 μL of Lipofectamine™ 2000 were used for the transfection. After 24 h the selection was started with complete medium supplemented with the G418-Geneticin® antibiotic, the selection medium being renewed every 2 days. Different clones were isolated, which were characterized and selected based on the luciferase activity.
The selected stable lines were cultured using complete medium for the parental line supplemented with G418. They were routinely cultured by dividing the cultures twice a week at a 1:10 dilution using Trypsin-EDTA.
The capacity to activate the hBD2 promoter was determined by means of the luciferase activity assay since a transcriptional agent inducing hBD2 synthesis causes luciferase enzyme production by means of activating the hBD2 gene promoter contained in the pGL3-hBD2promotor-Luc construct, a luminescence increase being observed. The selected stable cell lines were seeded at 20,000 cells per plate. After 24 h the plates were washed and incubated for 24 h in modified RPMI-1640 medium without L-Isoleucine with different peptide derivatives at a concentration of 0.5 mM. LPS (100 μg/mL) and L-Isoleucine (25 μg/mL) were used as positive controls with the same treatment as the peptide derivatives. Once the incubation period had ended, the Steady-Glo Luciferase Assay System reagent (Promega Corp.) was added to the cells, following the protocol of the commercial company. The luminescent signal (ULAs/s) produced by the reaction between the luciferase and its substrate was quantified with a LUMIstar Galaxy plate luminometer (BMG Labtechnologies). Based on the values of luciferase activity (ULAs/s), standardized with the negative controls, the activation of the hBD2 promoter was determined.

Experiment [2] deals with hBD2. The experiment can be described thus: Quantification of hBD2 secreted by human keratinocytes by ELISA. Format: cell-based. Here is the method: (§1) The quantification of the amount of mRNA secreted was carried out by means of a real-time quantitative RT-PCR assay. 3×10^6 cells of a human keratinocyte line were used, seeded in 25 cm^2 flasks. The cells were washed and incubated for 16 h-24 h with different peptide derivatives at a concentration of 1 mm or 0.25 mm in a volume of 3 mL of DMEM medium. LPS (100 μg/mL) and L-Ile (200 μg/mL) were used as positive controls. The supernatants of the cells were stored at −80° C., to analyze the secreted hBD2 protein level and the total RNA was extracted from the cells with the RNeasy kit (Quiagen) following the protocol of the commercial company.
Quantification of the hBD2 secreted in human keratinocytes after incubation with Ac-L-Glu-L-Met-L-Ala-L-Ile-OH (Ac-SEQ ID No. 3-OH), Ac-L-Arg-Phg-Phg-OH and Ac-L-Arg-Ahx-L-Ala-OH.
The amount of hBD2 secreted by human keratinocytes was quantified by means of an ELISA assay using the Human BD-2 ELISA Development commercial kit (Peprotech) from the supernatants of the cells coming from Example 15.
Based on the absorbance data obtained, the hBD2 protein level was calculated after the calibration with recombinant hBD2. The values of hBD2 obtained were standardized with respect to the values of the control assays (untreated cells).

Experiment [3] has as its system hBD2 mRNA. The experiment can be described thus: Quantification of hBD2 mRNA in human keratinocytes by real-time quantitative RT-PCR. Particulars: 16 h-24 h. Format: cell-based. The method, then:
Quantification of the hBD2 mRNA secreted in human keratinocytes after incubation with Ac-L-Glu-L-Met-L-Ala-L-Ile-OH (Ac-SEQ ID No. 3-OH), Ac-L-Arg-Phg-Phg-OH and Ac-L-Arg-Ahx-L-Ala-OH.
as §1
A retrotranscription reaction was carried out in a Mastercycler thermal cycler from 1 μg of total RNA of each sample, using the GeneAmp RNA PCR kit (Applied Biosystems) according to the protocol of the commercial company, and subsequently a real-time PCR was carried out by means of the assay with the SYBR Green I fluorophore in an ABI PRIS M 7700 Sequence Detector (Applied Biosystems).
The amount of mRNA was quantified by standardizing normalizing it with respect to the values of endogenous 18S ribosomal RNA. These values were in turn standardized with respect to the untreated cells and they were represented as the relative hBD2 mRNA level.

Setting [4] is: peptide derivative 0.5 mM, 24 h incubation, A549 pGL3-hBD2promotor-Luc stable line, standardized with negative controls (CONTROL 100%).
Where [5] appears, read: 0.25 mm peptide, supernatants of human keratinocytes from Example 15, standardized to untreated cells (CONTROL 100%).
[6] abbreviates: 0.25 mM peptide, normalized to 18S rRNA and untreated cells (CONTROL 100%).

Non-standard residues stand in square brackets, D forms with d. *: point of attachment. Palmitoyl = CCCCCCCCCCCCCCCC(=O)*; Ahx = NCCCCCC(=O)O

As to Ac-Arg-[Ahx]-Ala-OH, the “LUMINESCENCE INCREASE” value in experiment [1] (setting [4]) was 137%. In experiment [2] (setting [5]), the “Relative hBD2 level” value is recorded as 126%. Also, in experiment [3] (setting [6]), the “Relative hBD2 mRNA level” value is given as 126%.
In the case of Ac-L-Arg-Phg-Phg-OH, the “LUMINESCENCE INCREASE” value in experiment [1] (setting [4]) amounted to 120%. For the same molecule, in experiment [2] (setting [5]), the “Relative hBD2 level” value worked out at 116%. For the same molecule, in experiment [3] (setting [6]), the “Relative hBD2 mRNA level” value stood at 201%.
With “H-L-Glu-L-Met-L-Ala-L-Ile-OH (H-EMAI-OH)”, the “LUMINESCENCE INCREASE” value in experiment [1] (setting [4]) worked out at 125%.
Turning to `CC[C@H](C)[C@H](N)C(=O)O` [L-Ile, L-Isoleucine, reference compound], in experiment [1] (positive control L-Isoleucine 25 μg/mL, 24 h, A549 stable line, CONTROL 100%), the “LUMINESCENCE INCREASE” value came out at 127%. In experiment [2] (positive control L-Ile 200 μg/mL, keratinocyte supernatants, CONTROL 100%), the “Relative hBD2 level” value worked out at 134%. Also, in experiment [3] (positive control L-Ile 200 μg/mL, CONTROL 100%), the “Relative hBD2 mRNA level” value is listed as 125%.
On to “Palm-L-Glu-L-Met-L-Ala-L-Ile-NH2 (Palmitoyl-EMAI-NH2; SMILES CCCCCCCCCCCCCCCC(=O)N[C@@H](CCC(=O)O)C(=O)N[C@@H](CCSC)C(=O)N[C@@H](C)C(=O)N[C@H](C(N)=O)[C@@H](C)CC)”, for which, in experiment [1] (setting [4]), the “LUMINESCENCE INCREASE” value is 137%.
Consider “Ac-L-Glu-L-Met-L-Ala-L-Ile-OH (Ac-EMAI-OH)”, for which the “LUMINESCENCE INCREASE” value in experiment [1] (setting [4]) was 196%. Besides, the “Relative hBD2 level” value in experiment [2] (1 mm peptide, supernatants of human keratinocytes from Example 15, standardized to untreated cells (CONTROL 100%)) was found to be 129%. For the same molecule, the “Relative hBD2 mRNA level” value in experiment [3] (1 mm peptide, normalized to 18S rRNA and untreated cells (CONTROL 100%)) is reported as 323%.
